From ChEMBL document CHEMBL3259742, “Design and synthesis of triazolopyrimidine acylsulfonamides as novel anti-mycobacterial leads acting through inhibition of acetohydroxyacid synthase” (Bioorg Med Chem Lett, 2014)
Values after ≈ are worked out from the molar mass of the structure shown.

Experiments:
[1] = system: Mycobacterium tuberculosis; test: Antimycobacterial activity against Mycobacterium tuberculosis H37Rv ATCC 27294 after 7 days by resazurin assay; format: functional; conditions: H37Rv ATCC 27294, 168 h
[2] = Inhibition of Mycobacterium tuberculosis acetohydroxy acid synthase after 60 mins by acetoin formation-based colorimetry
[3] = system: Mycobacterium tuberculosis; test: Antimycobacterial activity against Mycobacterium tuberculosis H37Rv ATCC 27294 after 7 days by resazurin assay in presence of Isoleucine, Leucine and Valine; format: functional; conditions: H37Rv ATCC 27294, 168 h

Cc1cc(C)n2nc(C(=O)NS(=O)(=O)c3ccccc3C(F)(F)F)nc2n1
MIC [1]: ≤ 0.13 µg/mL
pIC50 [2]: 6.98
MIC [3]: > 32 µg/mL

Cc1cc(C)n2nc(C(=O)NS(=O)(=O)c3cccc(Br)c3)nc2n1
MIC [1]: 32 µg/mL (≈ 78 µM)
pIC50 [2]: 5.31

COC(=O)c1ccccc1S(=O)(=O)NC(=O)c1nc2nc(C)cc(C)n2n1
MIC [1]: 0.25 µg/mL (≈ 0.642 µM)
pIC50 [2]: 7.15
MIC [3]: > 32 µg/mL

Cc1cc(C)n2nc(C(=O)NS(=O)(=O)c3ccc(C(F)(F)F)cc3)nc2n1
MIC [1]: > 32 µg/mL
pIC50 [2]: < 4.52

Cc1cc(C)n2nc(C(=O)NS(=O)(=O)c3ccccc3OC(F)(F)F)nc2n1
MIC [1]: 0.03 µg/mL (≈ 0.0722 µM)
pIC50 [2]: 7.6
MIC [3]: > 32 µg/mL

Cc1cc(C)n2nc(C(=O)NS(=O)(=O)c3c(C)cccc3C)nc2n1
MIC [1]: 0.5 µg/mL (≈ 1.39 µM)
pIC50 [2]: 6.54
MIC [3]: > 32 µg/mL

COc1ccccc1S(=O)(=O)NC(=O)c1nc2nc(C)cc(C)n2n1
MIC [1]: 0.5 µg/mL (≈ 1.38 µM)
pIC50 [2]: 5.81
MIC [3]: > 32 µg/mL

Cc1cc(C)n2nc(C(=O)NS(=O)(=O)c3ccccc3OC(F)F)nc2n1
MIC [1]: < 0.25 µg/mL
pIC50 [2]: > 7.2
MIC [3]: > 32 µg/mL

Cc1cc(C)n2nc(C(=O)NS(=O)(=O)c3c(C)cccc3OC(F)(F)F)nc2n1
MIC [1]: ≤ 0.03 µg/mL
pIC50 [2]: 7.75
MIC [3]: > 32 µg/mL

Cc1cc(C)n2nc(C(=O)NS(=O)(=O)c3ccc(OC(F)(F)F)cc3)nc2n1
MIC [1]: > 32 µg/mL
pIC50 [2]: < 4.52

Cc1cc(C)n2nc(C(=O)NS(=O)(=O)c3c(C)cccc3Cl)nc2n1
MIC [1]: 0.25 µg/mL (≈ 0.658 µM)
pIC50 [2]: 6.7
MIC [3]: > 32 µg/mL

Cc1cc(C)n2nc(C(=O)NS(=O)(=O)c3cccc(OC(F)(F)F)c3)nc2n1
MIC [1]: 16 µg/mL (≈ 38.5 µM)
pIC50 [2]: 5.6

COC(=O)c1ccccc1S(=O)(=O)NC(=O)Nc1nc(C)cc(C)n1 [SULFOMETURON METHYL]
MIC [1]: 16 µg/mL (≈ 43.9 µM)
pIC50 [2]: 6.12
MIC [3]: > 32 µg/mL

Cc1cc(C)n2nc(C(=O)NS(=O)(=O)c3ccccc3Br)nc2n1
MIC [1]: 0.25 µg/mL (≈ 0.609 µM)
pIC50 [2]: 7.04
MIC [3]: > 32 µg/mL

Cc1cc(C)n2nc(C(=O)NS(=O)(=O)c3ccccc3Cl)nc2n1
MIC [1]: 2 µg/mL (≈ 5.47 µM)
pIC50 [2]: 6.82
MIC [3]: > 32 µg/mL

Cc1cc(C)n2nc(C(=O)NS(=O)(=O)c3ccccc3CC#N)nc2n1
MIC [1]: 32 µg/mL (≈ 86.4 µM)
pIC50 [2]: 6.59

Cc1cc(C)n2nc(C(=O)NS(=O)(=O)c3cccc(C(F)(F)F)c3)nc2n1
MIC [1]: 16 µg/mL (≈ 40.1 µM)
pIC50 [2]: 5.36

Cc1cc(C)n2nc(C(=O)NS(=O)(=O)c3ccccc3F)nc2n1
MIC [1]: > 32 µg/mL
pIC50 [2]: 5.24
MIC [3]: > 32 µg/mL

Cc1cc(C)n2nc(C(=O)NS(=O)(=O)c3ccccc3C)nc2n1
MIC [1]: 1 µg/mL (≈ 2.9 µM)
pIC50 [2]: 6.29
MIC [3]: > 32 µg/mL
